Data published in patent US11691972B2, “Compounds for targeted degradation of BRD9” (C4 Therapeutics, Inc., priority 2020, dated 2023).

Biological target: T1, BRD9 (Homo sapiens, UniProt Q9H8M2)
T1 sequence (Q9H8M2 1-597): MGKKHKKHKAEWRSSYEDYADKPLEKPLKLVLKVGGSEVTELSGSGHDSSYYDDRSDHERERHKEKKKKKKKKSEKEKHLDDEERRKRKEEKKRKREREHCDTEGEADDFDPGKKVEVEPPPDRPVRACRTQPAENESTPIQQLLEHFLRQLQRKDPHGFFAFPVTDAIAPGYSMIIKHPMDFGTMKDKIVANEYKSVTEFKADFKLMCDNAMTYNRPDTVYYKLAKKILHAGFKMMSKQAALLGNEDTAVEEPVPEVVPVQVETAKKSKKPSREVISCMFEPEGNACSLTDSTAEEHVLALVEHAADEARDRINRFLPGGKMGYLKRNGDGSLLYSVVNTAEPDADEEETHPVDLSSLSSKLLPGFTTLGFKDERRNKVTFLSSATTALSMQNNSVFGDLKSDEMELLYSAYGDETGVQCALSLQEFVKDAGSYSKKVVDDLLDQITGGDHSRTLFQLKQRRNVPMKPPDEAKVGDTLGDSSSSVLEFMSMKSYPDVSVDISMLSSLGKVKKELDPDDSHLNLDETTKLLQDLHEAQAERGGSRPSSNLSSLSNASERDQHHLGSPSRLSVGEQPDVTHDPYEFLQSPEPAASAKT
Assay: HiBiT BRD9 degradation assay in 293T.166 (BRD9-HiBiT) cells
Type: cell-based
Design: endogenously expressing BRD9 with HiBiT fusion tag via CRISPR; host or cells: 293T.166 (BRD9-HiBiT), also expressing LgBiT ectopically
Conditions: Table 1; 293T.166 cells, 2.0 hours; class symbols; read-out: HiBiT-Degradation 293T.166 BRD9 2.0 hours (DC50)
In short: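 Luminescence from the Nano-Glo HiBiT lytic reagent quantified BRD9 loss after compounds (top 10 μM, half-log, 11 points, duplicates) were incubated 2 h at 37° C. with 10,000 293T.166 BRD9-HiBiT/LgBiT cells per well, with controls lacking compound or lacking reagent.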

DC50 | Compound
< 100 nM | COc1cc(-c2cn(C)c(=O)c3[nH]ncc23)cc(OC)c1CC1CCN(C(=O)CC2CCN(c3ccc(NC4CCC(=O)NC4=O)cc3)CC2)CC1 (stereo not shown) [Compound 159]
< 100 nM | COc1cc(-c2cn(C)c(=O)c3[nH]ncc23)cc(OC)c1CC1CCN(C(=O)CC2CCN(c3ccc(NC4CCC(=O)NC4=O)cc3C(F)(F)F)CC2)CC1 (stereo not shown) [Compound 160]
< 100 nM | COc1cc(-c2cn(C)c(=O)c3cnccc23)cc(Cl)c1C=C1CCN(C(=O)CC2CCN(c3ccc(NC4CCC(=O)NC4=O)cc3F)CC2)CC1 (stereo not shown) [Compound 161, 3-[4-[4-[2-[4-[[2-chloro-6-methoxy-4-(2-methyl-1-oxo-2,7-naphthyridin-4-yl)phenyl]methylene]-1-piperidyl]-2-oxo-ethyl]-1-piperidyl]-3-fluoro-anilino]piperidine-2,6-dione]
< 100 nM | COc1cc(-c2cn(C)c(=O)c(C)c2C)cc(OC)c1C=C1CCN(C(=O)CC2CCN(c3ccc(NC4CCC(=O)NC4=O)cc3F)CC2)CC1 (stereo not shown) [Compound 162]
< 100 nM | COc1cc(-c2cn(C)c(=O)c(C)c2C)cc(Cl)c1C=C1CCN(C(=O)CC2CCN(c3ccc(NC4CCC(=O)NC4=O)cc3F)CC2)CC1 (stereo not shown) [Compound 163]
100 to 500 nM | COc1cc(-c2cn(C)c(=O)c3[nH]ncc23)cc(F)c1CN1CCN(C(=O)Cc2c(F)cc(NC3CCC(=O)NC3=O)cc2F)CC1 (stereo not shown) [Compound 164, 3-[3,5-difluoro-4-[2-[4-[[2-fluoro-6-methoxy-4-(6-methyl-7-oxo-1H-pyrazolo[3,4-c]pyridin-4-yl)phenyl]methyl]piperazin-1-yl]-2-oxo-ethyl]anilino]piperidine-2,6-dione]
< 100 nM | COc1cc(-c2cn(C)c(=O)c3[nH]ncc23)cc(OC)c1CNc1ccc(CC(=O)N2CCC(c3ccc(NC4CCC(=O)NC4=O)cc3)CC2)cc1 (stereo not shown) [Compound 165, 3-[4-[1-[2-[4-[[2,6-dimethoxy-4-(6-methyl-7-oxo-1H-pyrazolo[3,4-c]pyridin-4-yl)phenyl]methylamino]phenyl]acetyl]-4-piperidyl]anilino]piperidine-2,6-dione]
< 100 nM | COc1cc(-c2cn(C)c(=O)c3[nH]ncc23)cc(OC)c1CNc1cccc(C(=O)N2CCC(c3ccc(NC4CCC(=O)NC4=O)cc3)CC2)c1 (stereo not shown) [Compound 166, 3-[4-[1-[3-[[2,6-dimethoxy-4-(6-methyl-7-oxo-1H-pyrazolo[3,4-c]pyridin-4-yl)phenyl]methylamino]benzoyl]-4-piperidyl]anilino]piperidine-2,6-dione]
< 100 nM | COc1cc(-c2cn(C)c(=O)c3[nH]ncc23)cc(OC)c1CN1CCN(C(=O)Cc2ccc(-c3ccc(NC4CCC(=O)NC4=O)cc3)cc2)CC1 (stereo not shown) [Compound 167, 3-[4-[4-[2-[4-[[2,6-dimethoxy-4-(6-methyl-7-oxo-1H-pyrazolo[3,4-c]pyridin-4-yl)phenyl]methyl]piperazin-1-yl]-2-oxo-ethyl]phenyl]anilino]piperidine-2,6-dione]
< 100 nM | COc1cc(-c2cn(C)c(=O)c3[nH]ncc23)cc(OC)c1CC1CCN(CCN2CCC(c3ccc(NC4CCC(=O)NC4=O)cc3)CC2)CC1 (stereo not shown) [Compound 168, 3-[4-[1-[2-[4-[[2,6-dimethoxy-4-(6-methyl-7-oxo-1H-pyrazolo[3,4-c]pyridin-4-yl)phenyl]methyl]-1-piperidyl]ethyl]-4-piperidyl]anilino]piperidine-2,6-dione]
< 100 nM | COc1cc(-c2cn(C)c(=O)c3[nH]ncc23)cc(Cl)c1CN1CCC(C(=O)Nc2ccc(NC3CCC(=O)NC3=O)cc2F)CC1 (stereo not shown) [Compound 169, 1-[[2-chloro-6-methoxy-4-(6-methyl-7-oxo-1H-pyrazolo[3,4-c]pyridin-4-yl)phenyl]methyl]-N-[4-[(2,6-dioxo-3-piperidyl)amino]-2-fluoro-phenyl]piperidine-4-carboxamide]
< 100 nM | COc1cc(-c2cn(C)c(=O)c3[nH]ncc23)cc(OC)c1CNc1ccc2c(c1)CCN(C(=O)C1CCN(c3ccc(NC4CCC(=O)NC4=O)cc3)CC1)C2 (stereo not shown) [Compound 170]
< 100 nM | COc1cc(-c2cn(C)c(=O)c3[nH]ncc23)cc(Cl)c1CN1CCc2c(cccc2NC2CCN(c3ccc(NC4CCC(=O)NC4=O)cc3)CC2)C1 (stereo not shown) [Compound 171, 3-[4-[4-[[2-[[2-chloro-6-methoxy-4-(6-methyl-7-oxo-1H-pyrazolo[3,4-c]pyridin-4-yl)phenyl]methyl]-3,4-dihydro-1H-isoquinolin-5-yl]amino]-1-piperidyl]anilino]piperidine-2,6-dione]
< 100 nM | COc1cc(-c2cn(C)c(=O)c3cnccc23)cc(Cl)c1CN1CCC(N2CCN(c3ccc(NC4CCC(=O)NC4=O)cc3F)CC2)C(F)(F)C1 (stereo not shown) [Compound 177, 3-[4-[4-[1-[[2-chloro-6-methoxy-4-(2-methyl-1-oxo-2,7-naphthyridin-4-yl)phenyl]methyl]-3,3-difluoro-4-piperidyl]piperazin-1-yl]-3-fluoro-anilino]piperidine-2,6-dione]
< 100 nM | COc1cc(-c2cn(C)c(=O)c3[nH]ncc23)cc(OC)c1CN1CCC(N2CCN(c3ccc(NC4CCC(=O)NC4=O)cc3F)CC2)C(F)(F)C1 (stereo not shown) [Compound 182]
< 100 nM | COc1cc(-c2cn(C)c(=O)c3[nH]ncc23)cc(Cl)c1CN1CCC(N2CCN(c3ccc(NC4CCC(=O)NC4=O)cc3F)CC2)C(F)(F)C1 (stereo not shown) [Compound 183]
< 100 nM | COc1cc(-c2cn(C)c(=O)c3cnccc23)cc(OC)c1CN1CCC(N2CCN(c3ccc(NC4CCC(=O)NC4=O)cc3F)CC2)C(F)(F)C1 (stereo not shown) [Compound 184]
< 100 nM | COc1cc(-c2cn(C)c(=O)c3cnccc23)cc(OC)c1CN1CCC(N2CCN(c3ccc(NC4CCC(=O)NC4=O)cc3C(F)(F)F)CC2)C(F)(F)C1 (stereo not shown) [Compound 185]
< 100 nM | COc1cc(-c2cn(C)c(=O)c3cnccc23)cc(Cl)c1CN1CCC(N2CCN(c3ccc(NC4CCC(=O)NC4=O)cc3Cl)CC2)C(F)(F)C1 (stereo not shown) [Compound 186]
< 100 nM | COc1cc(-c2cn(C)c(=O)c(C)c2C)cc(OC)c1CN1CCC(N2CCN(c3ccc(NC4CCC(=O)NC4=O)cc3Cl)CC2)C(F)(F)C1 (stereo not shown) [Compound 187]
< 100 nM | COc1cc(-c2cn(C)c(=O)c3cnccc23)cc(OC)c1CN1CCC(N2CCN(c3ccc(NC4CCC(=O)NC4=O)cc3Cl)CC2)C(F)(F)C1 (stereo not shown) [Compound 188]
< 100 nM | COc1cc(-c2cn(C)c(=O)c3cnccc23)cc(F)c1CN1CCC(N2CCN(c3ccc(NC4CCC(=O)NC4=O)cc3F)CC2)C(F)(F)C1 (stereo not shown) [Compound 189]
< 100 nM | COc1cc(-c2cn(C)c(=O)c(C)c2C)cc(Cl)c1CN1CCC(N2CCN(c3ccc(NC4CCC(=O)NC4=O)cc3F)CC2)C(F)(F)C1 (stereo not shown) [Compound 190]
< 100 nM | COc1cc(-c2cn(C)c(=O)c(C)c2C)cc(F)c1CN1CCC(N2CCN(c3ccc(NC4CCC(=O)NC4=O)cc3F)CC2)C(F)(F)C1 (stereo not shown) [Compound 191]
< 100 nM | COc1cc(-c2cn(C)c(=O)c3ccccc23)cc(Cl)c1CN1CCC(N2CCN(c3ccc(NC4CCC(=O)NC4=O)cc3F)CC2)C(F)(F)C1 (stereo not shown) [Compound 192]
< 100 nM | Cn1cc(-c2ccc(CN3CCC(N4CCN(c5ccc(NC6CCC(=O)NC6=O)cc5F)CC4)C(F)(F)C3)c(OC(F)(F)F)c2)c2ccncc2c1=O (stereo not shown) [Compound 193]
< 100 nM | COc1cc(-c2cn(C)c(=O)c3cnccc23)cc(Cl)c1CN1CCC(N2CCN(c3ccc(NC4CCC(=O)NC4=O)nc3)CC2)C(F)(F)C1 (stereo not shown) [Compound 194]
< 100 nM | COc1cc(-c2cn(C)c(=O)c(C)c2C)cc(OC)c1CN1CCC(N2CCN(c3ccc(NC4CCC(=O)NC4=O)nc3)CC2)C(F)(F)C1 (stereo not shown) [Compound 195]
